In patent publication US9518064B2, “Imidazothiadiazole and imidazopyridazine derivatives as protease activated receptor 4 (PAR4) inhibitors for treating platelet aggregation” (BRISTOL-MYERS SQUIBB COMPANY, priority 2012, dated 2016):

These compounds were tested against PAR4 (Homo sapiens (Human), UniProt Q96RI0) (assay: FLIPR assay in PAR4-expressing HEK293 cells (calcium mobilization)). Settings: PAR4 antagonist activity, FLIPR assay as described in Example A.
Format: cell-based

Chain of PAR4 (Q96RI0 18-385): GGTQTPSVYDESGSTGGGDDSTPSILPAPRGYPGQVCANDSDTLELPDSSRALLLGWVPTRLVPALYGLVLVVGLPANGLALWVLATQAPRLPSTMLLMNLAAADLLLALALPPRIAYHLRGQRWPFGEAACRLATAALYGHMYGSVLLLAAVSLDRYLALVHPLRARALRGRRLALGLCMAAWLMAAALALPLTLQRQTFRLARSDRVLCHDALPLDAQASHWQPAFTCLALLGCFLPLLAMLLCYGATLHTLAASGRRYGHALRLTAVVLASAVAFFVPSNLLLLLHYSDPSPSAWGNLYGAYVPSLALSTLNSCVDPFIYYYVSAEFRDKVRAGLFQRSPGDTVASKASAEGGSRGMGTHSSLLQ

IC50 [nM] | Compound
3.08 | COc1cc(OCc2cccc(-c3ncccn3)c2)c2cc(-c3cn4nc(OC)sc4n3)oc2c1 [Example 3, 2-Methoxy-6-(6-methoxy-4-((3-(pyrimidin-2-yl)benzyl)oxy)benzofuran-2-yl)imidazo[2,1-b][1,3,4]thiadiazole]
9.35 | COc1cc(OCc2cccc(-c3cc4ccccc4s3)c2)c2cc(-c3cn4nc(OC)sc4n3)oc2c1 [Example 4]
2.36 | COc1cc(OCc2cccc(-c3c(C)noc3C)c2)c2cc(-c3cn4nc(OC)sc4n3)oc2c1 [Example 5]
1.29 | COc1cc(OCc2cccc(-c3ccc(F)nc3)c2)c2cc(-c3cn4nc(OC)sc4n3)oc2c1 [Example 7]
1.69 | COc1ccc(-c2cccc(COc3cc(OC)cc4oc(-c5cn6nc(OC)sc6n5)cc34)c2)c(C)c1 [Example 8]
1.26 | COc1cc(OCc2cccc(-c3ccsc3)c2)c2cc(-c3cn4nc(OC)sc4n3)oc2c1 [Example 9]
3.55 | COc1cc(OCc2cccc(-c3cnn(C)c3)c2)c2cc(-c3cn4nc(OC)sc4n3)oc2c1 [Example 10]
3.66 | COc1cc(OCc2cccc(-c3csc(C)n3)c2)c2cc(-c3cn4nc(OC)sc4n3)oc2c1 [Example 11]
3.76 | COc1cc(OCc2cccc(-c3csc4ccccc34)c2)c2cc(-c3cn4nc(OC)sc4n3)oc2c1 [Example 12]
1.53 | COc1cc(OCc2cccc(-c3ccc(F)cn3)c2)c2cc(-c3cn4nc(OC)sc4n3)oc2c1 [Example 14]
6.4 | COc1cc(OCc2cccc(-c3cccnc3)c2)c2cc(-c3cn4nc(OC)sc4n3)oc2c1 [Example 15]
3.78 | COc1cc(OCc2cccc(-c3ccc(F)cc3F)c2)c2cc(-c3cn4nc(OC)sc4n3)oc2c1 [Example 17]
2.42 | COc1cc(OCc2cccc(-c3cnc(OC)nc3OC)c2)c2cc(-c3cn4nc(OC)sc4n3)oc2c1 [Example 19]
8.54 | COc1cc(OCc2cccc(-c3ccc4nsnc4c3)c2)c2cc(-c3cn4nc(OC)sc4n3)oc2c1 [Example 20]
7.34 | COc1cc(OCc2cccc(-c3cnc4ccccn34)c2)c2cc(-c3cn4nc(OC)sc4n3)oc2c1 [Example 21]
23.6 | COc1cc(OCc2cccc(-c3ccc4nncn4c3)c2)c2cc(-c3cn4nc(OC)sc4n3)oc2c1 [Example 22]
2.04 | COc1cc(OCc2cccc(-c3ccc(C)cn3)c2)c2cc(-c3cn4nc(OC)sc4n3)oc2c1 [Example 25]
4.29 | COc1cc(OCc2cccc(-c3ccnc(C)c3)c2)c2cc(-c3cn4nc(OC)sc4n3)oc2c1 [Example 27]
0.67 | COc1cc(OCc2cccc(-c3ncc(F)cc3F)c2)c2cc(-c3cn4nc(OC)sc4n3)oc2c1 [Example 33]
0.38 | COc1cc(OCc2cccc(-c3ccc(Cl)cn3)c2)c2cc(-c3cn4nc(OC)sc4n3)oc2c1 [Example 36]
0.36 | CCCOc1ncc(-c2cccc(COc3cc(OC)cc4oc(-c5cn6nc(OC)sc6n5)cc34)c2)cn1 [Example 37]
0.68 | COc1cc(OCc2cccc(-c3cnc(F)c(C)c3)c2)c2cc(-c3cn4nc(OC)sc4n3)oc2c1 [Example 38]
0.53 | COc1cc(OCc2cccc(-c3ccc(C)nc3F)c2)c2cc(-c3cn4nc(OC)sc4n3)oc2c1 [Example 39]
8.68 | COc1cc(OCc2cccc(-c3coc(C(N)=O)c3)c2)c2cc(-c3cn4nc(OC)sc4n3)oc2c1 [Example 41]
1.05 | COc1cc(OCc2cccc(-c3cnc(C#N)cn3)c2)c2cc(-c3cn4nc(OC)sc4n3)oc2c1 [Example 42]

IC50 [nM] | Compound
1.21 | COc1cc(OCc2cccc(-c3ncccc3F)c2)c2cc(-c3cn4nc(OC)sc4n3)oc2c1 [Example 44]
1.03 | COc1cc(OCc2cccc(-c3cccnc3F)c2)c2cc(-c3cn4nc(OC)sc4n3)oc2c1 [Example 45]
1.64 | COc1cc(OCc2cccc(-c3ncccc3C#N)c2)c2cc(-c3cn4nc(OC)sc4n3)oc2c1 [Example 46]
1.88 | COc1cc(OCc2cccc(-c3ncc(Cl)cc3F)c2)c2cc(-c3cn4nc(OC)sc4n3)oc2c1 [Example 50]
1.19 | COc1cc(OCc2cccc(-c3cnc(OC)cc3C)c2)c2cc(-c3cn4nc(OC)sc4n3)oc2c1 [Example 51]
0.56 | COc1cc(OCc2cccc(-c3ncc(Cl)cc3C)c2)c2cc(-c3cn4nc(OC)sc4n3)oc2c1 [Example 52]
1.47 | COc1cc(OCc2cccc(-c3ncc(Cl)cc3Cl)c2)c2cc(-c3cn4nc(OC)sc4n3)oc2c1 [Example 54]
0.69 | COc1cc(OCc2cccc(-c3ccnc(F)c3)c2)c2cc(-c3cn4nc(OC)sc4n3)oc2c1 [Example 55]
0.74 | COc1cc(OCc2cccc(-c3ccc(Cl)nc3)c2)c2cc(-c3cn4nc(OC)sc4n3)oc2c1 [Example 56]
1.66 | COc1cc(OCc2cccc(-c3ccc(C(=O)N4CCOCC4)nc3)c2)c2cc(-c3cn4nc(OC)sc4n3)oc2c1 [Example 57]
1.22 | COCOc1cnc(-c2cccc(COc3cc(OC)cc4oc(-c5cn6nc(OC)sc6n5)cc34)c2)cn1 [Example 58]
1 | COc1ccc(COC(C)c2ccc(-c3cccc(COc4cc(OC)cc5oc(-c6cn7nc(OC)sc7n6)cc45)c3)nc2)cc1 (stereo not shown) [Example 61]
0.84 | COc1ccc(-c2cc(F)cc(COc3cc(OC)cc4oc(-c5cn6nc(OC)sc6n5)cc34)c2)nc1 [Example 62, 6-(4-((3-Fluoro-5-(5-methoxypyridin-2-yl)benzyl)oxy)-6-methoxybenzofuran-2-yl)-2-methoxyimidazo[2,1-b][1,3,4]thiadiazole]
1.08 | COc1cc(OCc2cncc(-c3ccoc3)c2)c2cc(-c3cn4nc(OC)sc4n3)oc2c1 [Example 65, 6-(4-((5-(Furan-3-yl)pyridin-3-yl)methoxy)-6-methoxybenzofuran-2-yl)-2-methoxyimidazo[2,1-b][1,3,4]thiadiazole]
0.57 | COc1cc(COc2cc(OC)cc3oc(-c4cn5nc(OC)sc5n4)cc23)cc(-c2ccc(Cl)nc2)c1 [Example 66, 6-(4-((3-(6-Chloropyridin-3-yl)-5-methoxybenzyl)oxy)-6-methoxybenzofuran-2-yl)-2-methoxyimidazo[2,1b][1,3,4]thiadiazole]
4.54 | COc1cc(OCc2cccc(-c3ccc(F)cn3)c2)c2cc(-c3cn4nc(C(C)(F)F)sc4n3)oc2c1 [Example 67]
1.48 | COc1cc(OCc2cc(F)cc(-c3ncc(F)cc3F)c2)c2cc(-c3cn4nc(OC)sc4n3)oc2c1 [Example 70]
7.19 | COc1cc(OCc2cncc(-c3ccccc3)c2)c2cc(-c3cn4nc(OC)sc4n3)oc2c1 [Example 72]
2.18 | COc1ccc(-c2cncc(COc3cc(OC)cc4oc(-c5cn6nc(OC)sc6n5)cc34)c2)cc1 [Example 73]
1.57 | COc1cc(OCc2cncc(-c3ccc(Cl)nc3)c2)c2cc(-c3cn4nc(OC)sc4n3)oc2c1 [Example 74]
2.14 | COc1cc(OCc2cncc(-c3cnc(OC)nc3)c2)c2cc(-c3cn4nc(OC)sc4n3)oc2c1 [Example 75]
6.66 | COc1cc(OCc2cccc(-c3ccc(Cl)nc3)n2)c2cc(-c3cn4nc(OC)sc4n3)oc2c1 [Example 76]
2.18 | COc1cc(OCc2cccc(-c3cnc(OC)nc3)n2)c2cc(-c3cn4nc(OC)sc4n3)oc2c1 [Example 77]
0.95 | COc1ccc(-c2cccc(COc3cc(OC)cc4oc(-c5cn6nc(OC)sc6n5)cc34)n2)cc1 [Example 78]
